Test results reported in the supplement of paper PMC8617591.

Columns and labels:
[1] = tested on: Mycobacterium tuberculosis Erdman (autoluminescent); assay: Einf, fitted maximum growth inhibition (fraction); higher = stronger maximal inhibition
Experimental: (§1)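 DiaMOND dose responses (10 doses, 1.5- or 2-fold spacing, equipotent around IC90) of autoluminescent M. tuberculosis Erdman in 8 in vitro models. Read-out is OD600, or luminescence for the intracellular (J774) and dormancy models, background-subtracted and normalised to untreated wells. A 3-parameter Hill fit gives Einf and AUC25 (area to IC25 normalised by IC25); GRinf comes from a Hill fit of the Hafner normalised growth rate. Biological replicates passing QC are averaged. Single drugs only.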

[2] = tested on: Mycobacterium tuberculosis Erdman (autoluminescent); assay: AUC25, normalised area under dose response up to IC25 (fraction (0-1)); higher = more potent at low dose
Experimental: as §1

[3] = tested on: Mycobacterium tuberculosis Erdman (autoluminescent); assay: GRinf, maximum normalised growth rate inhibition (unitless (-1 to 1)); higher = less effect (negative = killing)
Experimental: as §1

[4] = tested on: Mycobacterium tuberculosis Erdman (autoluminescent); assay: FIC90 (Loewe) at 90% inhibition (log2); higher = more antagonistic
Experimental: (§2)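 DiaMOND equipotent two-drug combination dose responses against autoluminescent M. tuberculosis Erdman in 8 in vitro models. Read-out is OD600, or luminescence for the intracellular and dormancy models, normalised to untreated wells. Hill-fit Einf, AUC25 and GRinf are potency metrics; FIC50 and FIC90 are Loewe-additivity fractional inhibitory concentrations, given as log2 (negative = synergy). Replicates are averaged.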

[5] = tested on: Mycobacterium tuberculosis Erdman (autoluminescent); assay: AUC25, normalised area under dose response up to IC25 (fraction (0-1)); higher = more potent at low dose; remark: listed apart in the source
Experimental: as §2

[6] = tested on: Mycobacterium tuberculosis Erdman (autoluminescent); assay: FIC50 (Loewe) at 50% inhibition (log2); higher = more antagonistic
Experimental: as §2

[7] = tested on: Mycobacterium tuberculosis Erdman (autoluminescent); assay: Einf, fitted maximum growth inhibition of combination (fraction); higher = stronger maximal inhibition
Experimental: as §2

[8] = tested on: Mycobacterium tuberculosis Erdman (autoluminescent); assay: GRinf, maximum normalised growth rate inhibition (unitless (-1 to 1)); higher = less effect (negative = killing); remark: listed apart in the source
Experimental: as §2

COc1c(N2C[C@@H]3CCCN[C@@H]3C2)c(F)cc2c(=O)c(C(=O)O)cn(C3CC3)c12 [moxifloxacin]
Conditions	AUC25, [2]	Einf, [1]	GRinf, [3]
in vitro model: acidic pH 5.7, time point: constant (~7 days, model-specific)	0.122	0.749	-0.192
in vitro model: acidic pH 5.7, time point: terminal (~4-5 doublings, model-specific)	0.0782	0.96	-0.226
in vitro model: intracellular J774, time point: constant = terminal	–	0.957	-0.212

Conditions	AUC25, [2]	Einf, [1]	GRinf, [3]
in vitro model: butyrate, time point: constant (~7 days, model-specific)	0.0832	0.908	0.0408
in vitro model: butyrate, time point: terminal (~4-5 doublings, model-specific)	0.0522	0.957	0.0197
in vitro model: cholesterol 0.05 mM, time point: constant (~7 days, model-specific)	0.116	0.629	-0.0568
in vitro model: cholesterol 0.05 mM, time point: terminal (~4-5 doublings, model-specific)	0.0909	0.881	-0.0841
in vitro model: cholesterol-high 0.2 mM, time point: constant (~7 days, model-specific)	0.0781	0.824	-0.195
in vitro model: cholesterol-high 0.2 mM, time point: terminal (~4-5 doublings, model-specific)	0.0751	1	-0.609
in vitro model: dormancy (butyrate + nitrate, low O2), time point: constant (~7 days, model-specific)	0.0904	0.927	0.0805
in vitro model: dormancy (butyrate + nitrate, low O2), time point: terminal (~4-5 doublings, model-specific)	0.0579	0.974	-0.132
in vitro model: standard 7H9 glycerol, time point: constant = terminal	0.0856	0.913	0.00369
in vitro model: valerate, time point: constant (~7 days, model-specific)	0.105	0.878	-0.00227
in vitro model: valerate, time point: terminal (~4-5 doublings, model-specific)	0.0529	0.936	0.0339

COc1c(N2C[C@@H]3CCCN[C@@H]3C2)c(F)cc2c(=O)c(C(=O)O)cn(C3CC3)c12 [moxifloxacin] + CO[C@H]1/C=C/O[C@@]2(C)Oc3c(C)c(O)c4c(O)c(c(/C=N/N5CCN(C)CC5)c(O)c4c3C2=O)NC(=O)/C(C)=C\C=C\[C@H](C)[C@H](O)[C@@H](C)[C@@H](O)[C@@H](C)[C@H](OC(C)=O)[C@@H]1C [rifampicin]
Conditions	AUC25, [5]	Einf, [7]	FIC50, [6]	FIC90, [4]	GRinf, [8]
in vitro model: acidic pH 5.7, time point: constant (~7 days, model-specific)	0.0689	0.781	0.367	–	0.0866
in vitro model: acidic pH 5.7, time point: terminal (~4-5 doublings, model-specific)	0.0663	0.968	0.382	0.156	-0.0508
in vitro model: intracellular J774, time point: constant = terminal	–	0.985	–	0.644	-0.307

Conditions	AUC25, [5]	Einf, [7]	FIC50, [6]	FIC90, [4]	GRinf, [8]
in vitro model: butyrate, time point: constant (~7 days, model-specific)	0.107	0.886	0.528	0.508	0.0889
in vitro model: butyrate, time point: terminal (~4-5 doublings, model-specific)	0.0896	0.956	0.435	0.598	0.0327
in vitro model: cholesterol 0.05 mM, time point: constant (~7 days, model-specific)	0.117	0.62	0.744	–	0.145
in vitro model: cholesterol 0.05 mM, time point: terminal (~4-5 doublings, model-specific)	0.091	0.885	0.35	-0.321	-0.0751
in vitro model: cholesterol-high 0.2 mM, time point: constant (~7 days, model-specific)	0.0744	0.8	0.432	–	-0.0793
in vitro model: cholesterol-high 0.2 mM, time point: terminal (~4-5 doublings, model-specific)	0.066	0.985	0.68	0.43	-0.57
in vitro model: dormancy (butyrate + nitrate, low O2), time point: constant (~7 days, model-specific)	0.071	0.923	0.513	-0.28	0.0564
in vitro model: dormancy (butyrate + nitrate, low O2), time point: terminal (~4-5 doublings, model-specific)	0.059	0.98	0.589	0.752	-0.197
in vitro model: standard 7H9 glycerol, time point: constant = terminal	0.0477	0.828	0.486	–	0.308
in vitro model: valerate, time point: constant (~7 days, model-specific)	0.04	0.842	0.724	–	0.085
in vitro model: valerate, time point: terminal (~4-5 doublings, model-specific)	0.0278	0.925	0.717	0.437	0.0646
